# From US20250268429A1, “Fluid Dispenser With Automatic Fluid Composition Adjustment” (OP-HYGIENE IP GmbH, priority 2024, published 2025)
# System: Bacillus subtilis spores
# Assay: in vitro killing of Bacillus subtilis spores by foam compositions (LOG reduction factor, CFU count)
# Assay type: cell-based
# Details: conclusion from Table 3
# Protocol: The compositions of Foams 1 to 6 are the same as in Table 1. Foam 7 contained 70% isopropanol.
# In the in vitro experiments summarized above, the following method was used: the bacterial culture was serially diluted (1 LOG); the tested foam was added to 50 μL of the diluted solution and stirred for 15 seconds; the resulting mixture was transferred to an agar plate and incubated for 24 hours before counting the bacterial colonies (CFUs). The LOG reduction factor was calculated as the LOG bacteria before treatment minus the LOG bacteria after treatment.
structure (smiles),measurement,value
"CC(C)O [Isopropanol, isopropanol]",effectiveness at killing Bacillus subtilis spores (in words),not effective
